# Laboratory results reported in the supplement of paper PMC10307832.
# Assays:
# Experiment in all cases: relative viability (nuclei count vs DMSO), 5 days (fraction); higher = more cells survive
# [1] = compound: CCc1cnn2c(NCc3ccc[n+]([O-])c3)cc(N3CCCC[C@H]3CCO)nc12 [Dinaciclib]
# Procedure, shortened: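 Viability was defined as treated-well nuclei divided by vehicle-well nuclei, with the median taken over replicate plates. Cells from lung cancer lines sat overnight at 37 °C in 1536-well plates, received five √10-spaced library-drug doses by pinning on vehicle-anchored plates, and grew 5 days without medium change before one-step fixation, permeabilisation and Hoechst staining, 4× imaging and MetaXpress nuclear counts. Only plates with control CV under 25% and at least one doubling were kept.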
# [2] = compound: CCc1cnn2c(NCc3ccc[n+]([O-])c3)cc(N3CCCC[C@H]3CCO)nc12 [Dinaciclib] + O=C(CCCCCCC(=O)Nc1ccccc1)NO [Vorinostat] (partner 1 µM)
# Procedure, shortened: (§1)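 Medians of duplicate plates are given as relative viability. That measure is the nuclei count in treated wells divided by the count in vehicle wells. Counts were taken on 4× images of lung cancer cell lines in 1536-well plates, 5 days after pin-tool dosing the day after seeding with one drug alone or a fixed anchor-drug dose plus five library-drug doses (not always all listed) in √10 steps.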
# [3] = compound: CCc1cnn2c(NCc3ccc[n+]([O-])c3)cc(N3CCCC[C@H]3CCO)nc12 [Dinaciclib] + C[C@]1(O)C[C@@H](c2nc(-c3ccc4ccc(-c5ccccc5)nc4c3)c3c(N)nccn32)C1 [Linsitinib] (partner 1 µM)
# Procedure, shortened: as §1
# [4] = compound: CCc1cnn2c(NCc3ccc[n+]([O-])c3)cc(N3CCCC[C@H]3CCO)nc12 [Dinaciclib] + CCNC(=O)c1noc(-c2cc(C(C)C)c(O)cc2O)c1-c1ccc(CN2CCOCC2)cc1 [Luminespib] (partner 0.01 µM)
# Procedure, shortened: as §1
# [5] = compound: CCc1cnn2c(NCc3ccc[n+]([O-])c3)cc(N3CCCC[C@H]3CCO)nc12 [Dinaciclib] + C[C@@H](Oc1cc(-c2cnn(C3CCNCC3)c2)cnc1N)c1c(Cl)ccc(F)c1Cl [Crizotinib] (partner 1 µM)
# Procedure, shortened: as §1
Cell Line,relative viability ([1]; 0.009487 µM),relative viability ([1]; 0.03 µM),relative viability ([1]; 0.09487 µM),relative viability ([1]; 0.3 µM),relative viability ([2]; first compound 0.009487 µM),relative viability ([2]; first compound 0.03 µM),relative viability ([2]; first compound 0.09487 µM),relative viability ([2]; first compound 0.3 µM),relative viability ([3]; first compound 0.009487 µM),relative viability ([3]; first compound 0.03 µM),relative viability ([3]; first compound 0.09487 µM),relative viability ([3]; first compound 0.3 µM),relative viability ([4]; first compound 0.009487 µM),relative viability ([4]; first compound 0.03 µM),relative viability ([4]; first compound 0.09487 µM),relative viability ([4]; first compound 0.3 µM),relative viability ([5]; first compound 0.009487 µM),relative viability ([5]; first compound 0.03 µM),relative viability ([5]; first compound 0.09487 µM),relative viability ([5]; first compound 0.3 µM)
NCI-H1355,1.08,0.681,0.214,0.151,0.634,0.507,0.262,0.136,0.899,0.635,0.151,0.132,0.703,0.246,0.135,0.195,1.17,0.762,0.185,0.141
NCI-H1437,0.894,0.227,0.17,0.154,0.87,0.183,0.181,0.177,0.839,0.112,0.0939,0.0919,1.1,0.354,0.152,0.136,0.918,0.41,0.0916,0.0807
NCI-H1651,0.969,0.764,0.186,0.0892,0.616,0.534,0.358,0.0861,0.775,0.307,0.0746,0.0549,0.695,0.554,0.0648,0.0578,0.941,0.685,0.188,0.0849
NCI-H1666,0.896,0.485,0.376,0.345,1.28,0.67,0.535,0.625,0.656,0.198,0.209,0.216,1.07,0.361,0.357,0.305,0.742,0.194,0.202,0.271
NCI-H1734,0.824,0.145,0.133,0.14,0.571,0.144,0.142,0.126,0.813,0.328,0.158,0.132,0.165,0.129,0.119,0.0997,0.464,0.163,0.1,0.12
NCI-H1755,1.01,0.894,0.257,0.266,0.739,0.452,0.227,0.242,0.991,0.429,0.166,0.171,0.395,0.624,0.147,0.14,0.8,0.289,0.147,0.147
NCI-H1915,0.69,0.202,0.159,0.12,0.534,0.291,0.116,0.104,1.06,0.279,0.136,0.127,0.292,0.142,0.0885,0.093,0.706,0.117,0.103,0.102
NCI-H1944,0.971,0.166,0.141,0.149,0.522,0.172,0.11,0.133,1.36,0.613,0.192,0.225,0.799,0.142,0.137,0.137,1.14,0.143,0.136,0.126
NCI-H1975,0.969,0.442,0.164,0.144,0.677,0.39,0.144,0.15,0.632,0.265,0.13,0.141,0.237,0.145,0.12,0.135,0.765,0.222,0.139,0.129
NCI-H1993,0.861,0.631,0.483,0.485,0.651,0.281,0.42,0.308,0.69,0.586,,0.518,0.723,0.472,0.53,0.474,0.735,0.766,,0.642
NCI-H2009,0.937,0.179,0.109,0.1,0.806,0.202,0.0818,0.0781,1.12,0.283,0.105,0.104,0.649,0.0986,0.101,0.101,1.13,0.0796,0.0746,0.0749
NCI-H2023,0.706,0.0772,0.0615,0.0696,0.678,0.08,0.0556,0.0518,0.442,0.0999,0.0724,0.0763,0.561,0.058,0.055,0.0469,0.93,0.0702,0.05,0.0622
NCI-H2085,1.07,0.685,0.27,0.268,0.907,0.503,0.221,0.214,0.94,0.188,0.176,0.202,0.417,0.195,0.186,0.169,1.02,0.313,0.208,0.236
NCI-H2087,0.954,0.14,0.111,0.122,0.753,0.114,0.12,0.0878,0.69,0.164,0.155,0.133,0.189,0.107,0.0516,0.0567,1.3,0.136,0.128,0.13
NCI-H2126,1.03,0.563,0.247,0.207,0.817,0.345,0.176,0.194,0.692,0.555,0.197,0.207,0.873,0.202,0.201,0.21,1.01,0.565,0.213,0.215
NCI-H2228,1.21,0.434,0.123,0.161,0.749,0.213,0.131,0.136,0.715,0.466,0.109,0.13,0.147,0.127,0.116,0.0939,0.526,0.178,0.135,0.103
